Laboratory results published in US7582786B2, “Synthetic catalytic free radical scavengers useful as antioxidants for prevention and therapy of disease” (Eukarion Inc., priority 1996, dated 2009).

Assays:
[1] = tested on: Human dermal fibroblasts (HF cells); experiment: Cell protection assay, tert-butylhydroperoxide (t-BHP) toxicity, XTT; assay type: cell-based; conditions: for Cell viability, absorbance at 490 nm uncorrected for blank: t-BHP 0.5 mM
Experimental: (§1) Human dermal fibroblasts (HF cells) were obtained from the American type tissue Culture Collection at passage 1 and cultured and propagated in a medium (HF medium) consisting of Dulbecco's Modified Eagle's Medium with 4.5 g/l D-glucose, 10% calf serum 4 mM glutamine, 50 units/ml penicillin, and 50 μg/ml streptomycin in a 37° C. humidified incubator equilibrated with 5% CO2. Cells were used at passages 5 or 6 for experiments. For cell protection assays, HF cells were seeded at a density of about 15,000 cells per cm2 onto 96-well culture plates and allowed to grow to confluence. To assess protection tert-butylhydroperoxide (t-BHP) toxicity, confluent cell layers were first treated with the indicated concentrations of test compounds dissolved in HF medium for 18 hr. The medium was then replaced with fresh medium containing test compounds and 0.5 mM tert-butylhydroperoxide (t-BHP) and cells were incubated for another 18 hr. The medium was then removed and replaced with fresh HF medium (100 μl per well) without test compounds or t-BHP. Fifty μl of XTT reagent (Boeringer Mannheim, Inc.), prepared as described by the manufacturer, was then added to each well and the plates returned to the incubator. After 2 hr., the absorbance at 490 nm was measured in a BioRad (Richmond, Calif.) Model 3550 plate-reader, using a reference wavelength of 655 nm. Control cells that had not been exposed to test compounds or toxic agents were included among the samples treated with XTT reagent. Absorbance measurements for blank wells, containing HF medium and XTT reagent but no cells, were also determined. To analyze protection from glucose/glucose oxidase toxicity, confluent cell layers were incubated with HF medium containing glucose oxidase (0.019 units/ml) along with test compounds, as indicated, for 18 hr in the tissue culture incubator. Fresh HF medium was then added and cell viability assessed using the XTT reagent as described above. For both these models, concentrations of toxic agents were selected that were reproducibly completely lethal. Cytotoxicity assessments were routinely confirmed by visual inspection of the cell layers prior to addition of the XTT reagent.

[2] = Catalase activity, conversion of H2O2 to oxygen, polarographic oxygen electrode (Example 2); assay type: biochemical
Experimental: Catalase activity was assayed by monitoring the conversion of H2O2 to oxygen using a Clark-type polarographic oxygen electrode. The apparatus consisted of a Mini Clark Style electrode, a 600 μl Oxygen Uptake Chamber, and a Chemical Microsensor system, all obtained from Diamond General Corporation (Ann Arbor, Mich.). The electrode was calibrated by immersion in nitrogen- or air-equilibrated buffers using a Dual Chamber Calibration Cell (Diamond General,. Corp.). Catalase reaction mixtures consisted of 50 mM sodium phosphate, pH 8.1, 0.9% sodium chloride, and salen manganese complex and H2O2 at the indicated concentrations. The temperature of the water-jacketed reaction chamber, as well as the calibration buffers, was maintained at 25±0.1° C. Data were collected at 1 sec intervals and stored-on a MacIntosh II computer using data acquisition hardware and software by Strawberry Tree, Inc. (Sunnyvale, Calif.). Dissolved oxygen concentrations were calculated as described previously (Del Rio et al. (1977) Anal. Biochem. 80: 409) based on a value of 2.5×10^−4 M oxygen for air-saturated buffer at 25° C. Linearity of the dissolved oxygen measurements within the experimental range was continued by determining the amount of oxygen generated from known quantities of H2O2 during exhaustive treatment with bovine liver catalase. Stock solutions of H2O2 were prepared by diluting a commercial 30% H2O2 solution in water and the H2O2 concentrations in these stocks were determined by absorbance at 240 nm, using a molar extinction coefficient of 44 (Stadtman, E R. et al. (1990) Proc. Natl. Acad. Sci. USA 87: 384). […] In the absence of salen manganese complex, H2O2 alone typically produced an early, relatively slow increase in signal. The slope of this increased signal was not proportional to H2O2 concentration (for example in one experiment, 1 and 10 Mm H2O2 yielded apparent rates of 12 and 14 μM oxygen per min, respectively) and may be due to an electrode artifact. […] Where presented, initial rates were calculated by determining the slope of the linear portion of time dependent plots of oxygen generation, usually comprising the first five seconds of the reaction. Unless otherwise indicated, these were corrected by subtracting the rate obtained with H2O2 alone. Where presented, endpoint oxygen generated was calculated from time-dependent plots, such as those shown in FIG. 14, as the difference between the baseline oxygen concentration immediately prior to substrate addition and the maximal oxygen concentration achieved during the course of the reaction. All reactions subjected to these calculations were run for a sufficient time to ensure that oxygen generation had ceased.
(§2) Catalase and peroxidase activities were assayed as described in Example 2. Catalase assays contained 10 μM salen-manganese complex and 10 mM hydrogen peroxide. Peroxidase assays contained 10 μM salen-manganese complex and 0.2 mM hydrogen peroxide. Glucose-glucose oxidase toxicity assays were performed using human dermal fibroblasts as described in Example 2.

[3] = tested on: Human dermal fibroblasts (HF cells); experiment: Cell protection assay, glucose/glucose oxidase toxicity, XTT; assay type: cell-based
Experimental: as §1, §2

[4] = Peroxidase activity, H2O2-dependent oxidation of ABTS (Example 2); assay type: biochemical; conditions: for Peroxidase rate: 10 μM salen manganese complex, 0.2 mM H2O2; for Peroxidase: relative to C7 (C7 = 100)
Experimental: (§3) Peroxidase activity was assayed by monitoring the hydrogen peroxide-dependent oxidation of 2,2′-azino-bis(3-ethylbenzthiazoline-6) sulfonic acid (ABTS) spectrophotometrically. Standard assay mixtures consisted of 50 mM sodium phosphate, pH 8.1, 0.9% sodium chloride, 0.5 mM ABTS, and H2O2 and salen manganese complex as indicated. Where indicated, 50 mM sodium phosphate buffers of pH 6.0 or pH 7.1 were substituted. Assays were conducted at 27±0.2° C. ABTS oxidation was monitored at 740 or 500 nm to eliminate interference by the salen manganese complexes, many of which absorb in the vicinity of the λmax of oxidized ABTS, and to avoid absorbance values that exceeded the linear range of the spectrophotometer. The amount of oxidized ABTS was estimated using an Δε740 of 20,300 M^−1cm^−1 or an Δε500 of 3400 M^−1cm^−1 calculated based upon the published molar extinction coefficient oat 405 nm (36,800).
as §2

[5] = tested on: brain homogenates; experiment: Iron-induced lipid peroxidation in brain homogenates (MDA); assay type: biochemical, rat
Experimental: Lipid peroxidation was induced by incubating a mixture consisting of 0.25 ml homogenate, 0.25 ml ASCF with test compounds, and 10 μM FeCl2 for 1 hr at 35° C. under an atmosphere equilibrated with O2:CO2(95:5). Following the incubation, 0.1 ml of the sample was extracted with trichloroacetic acid and analyzed for thiobarbituric acid reactive material as described previously, using authentic malonyldialdehyde (MDA) as a standard.

[6] = SOD activity, xanthine/xanthine oxidase with cytochrome C as acceptor (Example 2); assay type: biochemical; conditions: relative to C7 (C7 = 100)
Experimental: Superoxide dismutase (SOD) activity was assayed by following the inhibition of the reduction of an electron acceptor molecule in the presence of the free-radical generating system xanthine/xanthine oxidase (McCord et al. (1973) Superoxide and Superoxide Dismutase in “Oxidases and Related Redox Systems, vol. I, King et al. eds., University Park press, Baltimore, pp. 51-76). The assay mixture consisted of 50 mM sodium phosphate, pH 7.8, 120 μM xanthine, 0.2 units/ml xanthine oxidase, with acceptor molecule and salen manganese compound, as indicated. Assays were conducted at 27±0.2° C. using a water-jacketed cell holder in a Beckman DU7400 spectrophotometer. In most cases, oxidized cytochrome c, at 0.13 mg/ml, was employed as acceptor and its reduction was monitored spectrophotometrically at 550 nm. In some experiments, nitroblue tetrazolium (NBT), at 80 μM, was substituted for cytochrome c as the acceptor. NBT reduction was also monitored at 550 nm. An estimated extinction coefficient for NBT reduction, 20,800 M^−1cm^−1, determined empirically by exhaustive reduction of NBT in the reaction mixture described above, was employed where indicated. […] Conversion of xanthine to urate was calculated using ε290's of […] for urate and 4050 M^−1cm^−1 for xanthine. […] For each compound, at least four different concentrations were tested in duplicate.

[7] = Peroxidase activity with t-BHP as substrate, ABTS oxidation; assay type: biochemical; conditions: 1 mM t-BHP
Experimental: as §3
(In comparison, horseradish peroxidase utilized t-BHP with an ABTS oxidation rate that was about 5.4% of the rate with H2O2).

[8] = 10 μM salen manganese complex, 10 mM H2O2

Row | Compound | Cell viability, absorbance at 490 nm uncorrected for blank ([1]; 2.5 μM) | Cell viability, absorbance at 490 nm uncorrected for blank ([1]; 5 μM) | Cell viability, absorbance at 490 nm uncorrected for blank ([1]; 10 μM) | Cell viability, absorbance at 490 nm uncorrected for blank ([1]; 20 μM) | Cell viability, absorbance at 490 nm uncorrected for blank ([1]; 40 μM) | Cell viability, absorbance at 490 nm uncorrected for blank ([1]; 80 μM) | Catalase rate [2, 8] | Endpoint [2, 8] | Catalase endpt. ([2]; relative to C7 (C7 = 100)) | Catalase rate ([2]; relative to C7 (C7 = 100)) | protection against glucose and glucose oxidase (in words) [3] | Peroxidase rate [4] | Peroxidase [4] | MDA levels, percent of control ([5]; 1 μM) | MDA levels, percent of control ([5]; 5 μM) | MDA levels, percent of control ([5]; 10 μM) | MDA levels, percent of control ([5]; 25 μM) | SOD [6] | also measured
1 | CC(=O)[O][Mn]1[O]c2ccccc2C=NCCN=Cc2ccccc2[O]1 [Compound C31] | 0.28 ± 0.01 | 1.25 ± 0.09 | 1.41 ± 0.08 | 1.40 ± 0.06 | 1.30 ± 0.03 | 1.16 ± 0.09 | 131.9 ± 12.9 μM O2/min | 29.6 ± 0.5 maximal μM O2 | 81 | 92 | about equally as effective as C7 | 21.3 ± 0.5 μM ABTS oxidized/min | 114 | 108% | 22% | 6% | 0% | 101 | synergistic toxicity with t-BHP ([1]; 80 μM): possible synergistic toxicity
2 | COc1ccc2c(c1)[O][Mn]([O]C(C)=O)[O]c1cc(OC)ccc1C=NCCN=C2 [Compound C33] | 0.27 ± 0.01 | 0.27 ± 0.01 | 1.35 ± 0.08 | 1.44 ± 0.08 | 1.50 ± 0.11 | 1.36 ± 0.02 | 53.9 ± 8.7 μM O2/min | 12.6 ± 1.3 maximal μM O2 | 44 | 38 | about equally as effective as C7 | 0.8 ± 0.2 μM ABTS oxidized/min | 4 | 98% | 38% | 16% | 7% | 68 | –
3 | COc1ccc2c(c1)[O][Mn]([Cl])[O]c1cc(OC)ccc1C=NCCN=C2 [Compound C34] | 0.27 ± 0.01 | 0.27 ± 0.01 | 1.20 ± 0.12 | 1.46 ± 0.08 | 1.48 ± 0.08 | 1.54 ± 0.08 | 66.4 ± 13.9 μM O2/min | 11.9 ± 0.2 maximal μM O2 | 44 | 46 | about equally as effective as C7 | 0.8 ± 0.2 μM ABTS oxidized/min | 4 | 97% | 30% | 12% | 6% | 70 | –
4 | COc1ccc2c(c1)C=NCCN=Cc1cc(OC)ccc1[O][Mn]([Cl])[O]2 [Compound C41] | 0.28 ± 0.01 | 0.28 ± 0.01 | 1.37 ± 0.01 | 1.44 ± 0.04 | 1.35 ± 0.06 | 1.07 ± 0.03 | 172.2 ± 2.2 μM O2/min | 83.5 ± 0.9 maximal μM O2 | 311 | 120 | – | 23.4 ± 2.6 μM ABTS oxidized/min | 136 | – | – | – | – | 114 | toxicity of compound alone ([1]; 80 μM, without t-BHP): equivalent toxicity with or without t-BHP; turnovers before the catalase reaction ceased ([2]; 10 μM complex, 10 mM H2O2): about 16 turnovers; protection against glucose and glucose oxidase ([3]; 80 μM, glucose oxidase 0.019 units/ml): highly protective
5 | horseradish peroxidase | – | – | – | – | – | – | – | – | – | – | – | – | – | – | – | – | – | – | ABTS oxidation rate with t-BHP, percent of rate with H2O2 [7]: about 5.4%; rate of ABTS oxidation ([4]; 13.2 units/ml, pH 8.1, 1 mM H2O2): 99.3 µM/min
